Experimental data published in US20030017462A1, “Control samples for use as standards for evaluating apoptosis in a selected tissue” (priority 2001, published 2003).
“Also recorded” adds a separate entry of the source.

Tested on: thymic tissue
Experiment: Thymic apoptosis in microgravity culture (RCCS bioreactor), TUNEL assay
Type: cell-based, Lewis rats
Conditions: for Percent Area of Stain: 1 μM dexamethasone in culture media, microgravity bioreactor, 37° C.; for Ratio DEX/CON (Percent Area of Stain): 1 μM dexamethasone vs control media
Description: The following media and solutions were prepared:
1. Phosphate buffered saline (PBS) for rinsing tissue.
2. Control media, consisting of RPMi 1640 containing 15% heat-inactivated fetal bovine serum, 100 μg/mL penicillin, 100 μg/mL streptomycin, 100 μg/mL L-glutamine, and 2.5 μg/mL amphotericin B.
3. Experimental media, consisting of control media containing 1 μM dexamethasone.
Two microgravity bioreactors (Synthecon, Inc., Houston Tex.) were utilized; one containing control media and one containing experimental media.
The thymus was removed from two Lewis rats, washed in cold PBS to remove blood, and stripped of excess tissue. Thymus tissue was cut into sections of about 3 mm^3, while in cold media.
The bioreactors were filled with control (CON) or experimental (DEX) media. Approximately 24 thymus pieces were placed in each bioreactor, for incubation at 37° C. at a rotation speed appropriate for the size of tissue piece and sedimentation rate, in order to provide constant free-fall. Tissue pieces were removed from each bioreactor every half hour for the first 3 hours, then every hour to the sixth hour, then at hour 10 and hour 24.
Tissue was fixed in 10% neutral buffered formalin or Histochoice™ (Amresco, Inc., Solon Ohio), processed to paraffin and sectioned for histochemical analysis. Formalin-fixed sections were stained with hematoxylin and eosin. Immunohistochemical staining for Lewis Y expression was performed with Histochoice TM fixed samples on a DAKO autostainer, using a monoclonal mouse anti-human Lewis γ antibody (DAKO, Carpinteria Calif.). A peroxidase labeled streptavidin-biotin detection system (Zymed, So. San Francisco Calif.) and diaminobenzidine (DAB) chromagen were used.
In situ labeling of apoptosis was measured by terminal deoxynucleotidyl transferase mediated dUTP nick end labeling (TUNEL) method with a cell death detection kit (Boehringer Mannheim Gmbh, Mannheim, Germany). Using digital image analysis, immunostained sections were analyzed for intensity stain index (ISI=[ΣP0×I0]/total tissue area in pixels), where P0=number of pixels at each intensity and I0=the intensity units (Doolin et al., J. Surg. Res. 59: 191-197, 1995). TUNEL was quantified as total apoptotic cell number divided by total tissue area.

C[C@@H]1C[C@H]2[C@@H]3CCC4=CC(=O)C=C[C@]4(C)[C@@]3(F)[C@@H](O)C[C@]2(C)[C@@]1(O)C(=O)CO [DEX, dexamethasone]
Percent Area of Stain (time 0 hours): 6.04% | Percent Area of Stain (time 3 hours): 21.68% | Percent Area of Stain (time 6 hours): 33.29% | Percent Area of Stain (time 10 hours): 43.82% | Percent Area of Stain (time 24 hours): 43.30% | Effect on rate of apoptosis of thymic tissue (1 μM dexamethasone in culture medium, RCCS bioreactor, compared with control culture): increases the rate of apoptosis; also recorded: increased the rate of apoptosis up to 10 hours post-initiation | Ratio DEX/CON (Percent Area of Stain) (time 0 hours): 1.00 | Ratio DEX/CON (Percent Area of Stain) (time 3 hours): 1.46 | Ratio DEX/CON (Percent Area of Stain) (time 6 hours): 1.58 | Ratio DEX/CON (Percent Area of Stain) (time 10 hours): 1.37 | Ratio DEX/CON (Percent Area of Stain) (time 24 hours): 0.87 | Time to maximum level of apoptosis, as measured by TUNEL (thymic tissue in RCCS bioreactor in the presence of dexamethasone (24 hours without)): 10 h
